“Also recorded” adds a separate entry of the source.
Assay: aqueous solubility characteristics / BCS classification
Format: physicochemical
Source text: Upon emptying from the stomach, COMPOUND A has the tendency to quickly precipitate out of solution due to an abrupt solubility drop in intestinal pH. […] The present invention relates to orally bioavailable pharmaceutical solid dispersion formulations of COMPOUND A.
Therapeutic compounds with such solubility characteristics typically present pharmaceutical formulation scientists with a challenge while attempting to prepare oral formulations capable of improving oral bioavailability of the therapeutic compound. Such challenges in preparing solid oral dosage forms of COMPOUND A are overcome, according to the present invention, by formulating the compound as a solid dispersion.

- BCS class: BCS class II
Compound: COC(=O)N[C@@H](C)CNc1nccc(-c2cn(C(C)C)nc2-c2cc(Cl)cc(NS(C)(=O)=O)c2F)n1 [COMPOUND A, (S)-methyl (1-((4-(3-(5-chloro-2-fluoro-3-(methylsulfonamido)phenyl)-1-isopropyl-1H-pyrazol-4-yl)pyrimidin-2-yl)amino)propan-2-yl)carbamate]
- solubility at low pH (low pH): higher solubility; also recorded: highly soluble
- aqueous solubility at weakly acidic and neutral pH (weakly acidic and neutral pH): limited solubility; also recorded: poor aqueous solubility

— US9763941B2, “Method of treating melanoma by administration of pharmaceutical formulations of (S)-methyl (1-((4-(3-(5-chloro-2-fluoro-3-(methylsulfonamido)phenyl)-1-isopropyl-1H-pyrazol-4-yl)pyrimidin-2-yl)amino)propan-2-yl)carbamate” (Array BioPharma, Inc., priority 2011, dated 2017)
